Reference: US8481738B2, “Gonadotropin-releasing hormone receptor antagonists and methods relating thereto” (Neurocrine Biosciences, Inc., priority 2007, dated 2013)

biological target: T1, human GnRH receptor (Homo sapiens, UniProt P30968); experiment: Peptide competition radioligand binding displacement assay, human GnRH receptor membranes; details: one or more of the peptide competition human receptor binding assays
T1 construct: expressed in transfected cells; host or cells: RBL cells, stably transfected (in general)
T1 sequence (P30968 1-328): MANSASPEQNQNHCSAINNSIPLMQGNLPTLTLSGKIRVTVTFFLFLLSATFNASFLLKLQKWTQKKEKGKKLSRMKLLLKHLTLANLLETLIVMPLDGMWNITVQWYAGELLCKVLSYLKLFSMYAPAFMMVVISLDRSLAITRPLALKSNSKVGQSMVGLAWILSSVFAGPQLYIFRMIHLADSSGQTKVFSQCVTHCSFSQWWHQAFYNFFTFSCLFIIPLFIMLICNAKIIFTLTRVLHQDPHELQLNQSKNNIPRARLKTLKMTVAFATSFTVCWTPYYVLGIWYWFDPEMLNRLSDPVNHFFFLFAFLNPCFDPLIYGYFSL
Protocol: cDNA's of human, rhesus macaque, rabbit, dog and rat GnRH receptors are cloned into pcDNA3.1 (+) (Invitrogen). Full length sequences of all receptors are confirmed by DNA sequencing. HEK 293, CHO, COS-7, or rat basophilic leukemia (RBL) cells are stably transfected with human, rat, or macaque GnRH receptors and high expressing single cell clones (Bmax≧0.4 pMol/mg membrane protein) are isolated and maintained in Dulbecco's Modified Eagles Medium (DMEM) with following supplements: 10 mM HEPES; 2 mM L-glutamine; 1 mM Sodium Pyruvate; 50 U/mL penicillin, 50 μg/mL streptomycin; 10% Heat-inactivated Fetal Bovine Serum and 200 μg/mL Geneticin (G-418-Sulfate). Non-essential amino acids (0.1 mM) (Irvine Scientific; Santa Ana, Calif.) are included in the RBL cell media.
In general, initial peptide radioligand binding assays are carried out using membranes from stably transfected RBL cells. RBL stable clones are found to more consistently express high levels of GnRH receptor and are therefore used for subsequent binding studies as well as Ca^++ flux and inositol phosphate accumulation assays. Transiently transfected COS-7 cells are used for preparation of membranes containing GnRH receptors from multiple species (as well as those of mutant receptors for other studies) because of the convenience for rapidly analyzing multiple receptors.
HEK293 cells stably transfected with the human GnRH receptor are grown for two days after achieving confluence then are harvested by striking tissue culture flasks against a firm surface. Cells are collected by centrifugation at 1000 g for 5 minutes. Cell pellets are resuspended in 5% sucrose and homogenized using a polytron homogenizer for two 15 second homogenization steps. Cell homogenates are then centrifuged for 5 minutes at 3000 g to remove nuclei and the supernatant subsequently centrifuged for 30 minutes at 44,000 g to collect the membrane fraction. The membrane pellet is resuspended in GnRH binding buffer (10 mM HEPES, pH 7.5, 150 mM NaCl and 0.1% BSA) and aliquots immediately snap-frozen in liquid nitrogen and stored at −80° C. Protein content of the membrane suspension is determined using the Bio-Rad protein assay kit (Bio-Rad).
RBL cells stably transfected with the human GnRH receptor are grown to 80% confluency prior to harvesting. The cells are incubated at 37° C. for 10 min in 0.5 mM EDTA/PBS (Ca^++, Mg^++ free), and are dislodged from the plate by gentle rapping of the flasks. Cells are collected and pelleted by centrifugation at 1000 g for 5 minutes. Cell pellets are resuspended in buffer (DPBS supplemented with 10 mM MgCl2, 2 mM EGTA, pH=7.4), and cell lysis is performed using a pressure cell and applying N2 at a pressure of 900 psi for 30 min at 4° C. Unbroken cells and larger debris were removed by centrifugation at 1200 g for 10 min at 4° C. The cell membrane supernatant is then centrifuged at 45,000 g and the resulting membrane pellet is resuspended in assay buffer and homogenized on ice using a tissue homogenizer. Protein concentrations are determined using the Coomassie Plus Protein Reagent kit. Membranes are aliquoted and stored at −80° C. until ready for use.
COS-7 cells transiently transfected with GnRH receptors from different species (human, macaque, dog, rabbit, rat) or mutant GnRH receptors are prepared by bulk electroporation. COS-7 cells are obtained from American Type Cell Culture (Manassas, Va.) and are maintained in Dulbeccos's modified Eagle's medium (DMEM) (MediaTech Inc., Herndon, Va.) containing 10% fetal bovine serum, 10 mM HEPES, 2 mM L-glutamine, 1 mM sodium pyruvate, 50 U/mL penicillin, 50 μg/mL streptomycin. COS-7 cells are seeded in 500 cm^2 tissue culture plates and grown to confluency prior to cell transfection. […]

Row | SMILES | Ki [nM]
1 | Cc1cc(C#N)ncc1-c1cc(C(=O)N(C)c2ccccc2OCCCC(=O)O)ccc1Cl [5-1, 4-(2-{[4-Chloro-3-(6-cyano-4-methyl-pyridin-3-yl)-benzoyl]-methyl-amino}-phenoxy)-butyric acid] | ≤ 100
2 | Cc1cccc(OCCC(=O)O)c1N(C)C(=O)c1ccc(Cl)c(-c2ccc(C(F)(F)F)cc2C#N)c1 [11-8] | ≤ 100
3 | Cc1cccc(OCCC(=O)O)c1N(C)C(=O)c1ccc(Cl)c(-c2cnc(C(F)(F)F)cc2C#N)c1 [11-7] | ≤ 100
4 | COC(=O)c1ccccc1N(C)C(=O)c1ccc(Cl)c(-c2ncc(C)cc2Cl)c1 [2-77] | ≤ 100
5 | COC(=O)CCCOc1ccccc1N(C)C(=O)c1ccc(Cl)c(-c2cnc(C(F)(F)F)cc2C#N)c1 [3-10] | ≤ 100
6 | COc1ccccc1N(C)C(=O)c1ccc(Cl)c(-c2ncc(F)cc2F)c1 [2-59] | ≤ 100
7 | COc1ccccc1N(C(=O)c1ccc(Cl)c(-c2ncc(Cl)cc2Cl)c1)C1CC1 [18-1, 4-Chloro-N-cyclopropyl-3-(3,5-dichloro-pyridin-2-yl)-N-(2-methoxy-phenyl)-benzamide] | ≤ 100
8 | Cc1cc(Cl)ncc1-c1cc(C(=O)N(C)c2c(C)cccc2OCCCC(=O)O)ccc1Cl [4-3] | ≤ 100
9 | Cc1cc(Cl)c(-c2cc(C(=O)N(C)c3ccccc3C)ccc2Cl)cn1 [2-16] | ≤ 100
10 | Cc1cc(Cl)c(-c2cc(C(=O)N(C)c3cccc(C)c3C)ccc2Cl)c(C)n1 [2-21] | ≤ 100
11 | COc1cccc(C)c1N(C)C(=O)c1ccc(Cl)c(-c2cnc(C)cc2Cl)c1 [2-27] | ≤ 100
12 | Cc1cc(Cl)cnc1-c1cc(C(=O)N(C)c2cccc(C)c2C)ccc1Cl [2-71] | ≤ 100
13 | COc1cccc(C)c1N(C)C(=O)c1ccc(Cl)c(-c2cnc(C(F)(F)F)cc2C#N)c1 [2-35] | ≤ 100
14 | Cc1cc(C#N)ncc1-c1cc(C(=O)N(C)c2c(C)cccc2OCCCC(=O)O)ccc1Cl [4-8] | ≤ 100
15 | COc1ccccc1N(C)C(=O)c1ccc(Cl)c(-c2cnc(Cl)cc2Cl)c1 [2-3] | ≤ 100
16 | Cc1cc(C#N)ncc1-c1cc(C(=O)N(C)c2ccccc2OCCC(=O)O)ccc1Cl [11-1, 3-(2-{[4-Chloro-3-(6-cyano-4-methyl-pyridin-3-yl)-benzoyl]-methyl-amino}-phenoxy)-propionic acid] | ≤ 100
17 | COc1cccc(C)c1N(C)C(=O)c1ccc(Cl)c(-c2cnc(Cl)cc2Cl)c1 [2-29] | ≤ 100
18 | COc1ccccc1N(C)C(=O)c1ccc(Cl)c(-c2cnc(C(F)(F)F)cc2C#N)c1 [2-14] | ≤ 100
19 | Cc1cc(C#N)ncc1-c1cc(C(=O)N(C)c2c(C)cccc2C)c(OCCCC(=O)O)cc1Cl [22-8] | ≤ 100
20 | Cc1cc(C(F)(F)F)ncc1-c1cc(C(=O)N(C)c2c(C)cccc2OCCC(=O)O)ccc1Cl [11-5] | ≤ 100
21 | COc1ccccc1N(C)C(=O)c1ccc(Cl)c(-c2ncnc3scc(C)c23)c1 [2-50] | ≤ 100
22 | COC(=O)CCCOc1ccccc1N(C)C(=O)c1ccc(Cl)c(-c2cnc(Cl)cc2C)c1 [3-2] | ≤ 100
23 | COc1ccccc1N(C)C(=O)c1ccc(Cl)c(-c2cnc(C)cc2C)c1 [2-9] | ≤ 100
24 | COc1cccc(C)c1N(C)C(=O)c1cc(-c2nc3ccccc3cc2C#N)c(Cl)cc1OCCCC(=O)O [22-3] | ≤ 100

Second part, the compound after the results:

Row | Ki [nM] | SMILES
25 | ≤ 100 | COc1ccccc1N(C)C(=O)c1cc(-c2cnc(C(F)(F)F)cc2C#N)c(Cl)cc1OCCN(C)C(C)=O [47-2]
26 | ≤ 100 | COc1ccccc1N(C)C(=O)c1cc(-c2cnc(C(F)(F)F)cc2C#N)c(Cl)cc1OCCCn1cncn1 [42-13]
27 | ≤ 100 | COc1cc(Cl)c(-c2cnc(C(F)(F)F)cc2C#N)cc1C(=O)N(C)c1c(OC)cccc1OC [39-3]
28 | ≤ 100 | CN(C(=O)c1ccc(Cl)c(-c2cnc(C(F)(F)F)cc2C#N)c1)c1ccccc1OCC(C)(C)C(=O)O [52-1, 3-(2-{[4-Chloro-3-(4-cyano-6-trifluoromethyl-pyridin-3-yl)-benzoyl]-methyl-amino}-phenoxy)-2,2-dimethyl-propionic acid]
29 | ≤ 100 | COc1ccccc1N(C)C(=O)c1cc(-c2cnc(C(F)(F)F)cc2C#N)c(Cl)cc1OCCCC(=O)OC(C)OC(=O)OC1CCCCC1 (stereo not shown) [37-3, 4-{5-chloro-4-(4-cyano-6-trifluoromethyl-pyridin-3-yl)-2-[(2-methoxy-phenyl)-methyl-carbamoyl]-phenoxy}-butyric acid 1-cyclohexyloxycarbonyloxy-ethyl ester]
30 | ≤ 100 | COc1cc(Cl)c(-c2cnc(C(F)(F)F)cc2C#N)cc1C(=O)N(C)c1ccccc1OCC(F)(F)F [39-9]
31 | ≤ 100 | COc1ccccc1CN(C)C(=O)c1cc(-c2cnc(C(F)(F)F)cc2C#N)c(Cl)cc1OC [39-17]
32 | ≤ 100 | COc1cc(Cl)c(-c2cnc(C(F)(F)F)cc2C#N)cc1C(=O)N(C)Cc1ccccc1F [39-16]
33 | ≤ 100 | CN(C(=O)c1ccc(Cl)c(-c2cnc(C(F)(F)F)cc2C#N)c1)c1ccccc1OCCN1CCC[C@@H]1C(=O)O [50-2]
34 | ≤ 100 | COc1ccccc1N(C)C(=O)c1cc(-c2cnc(C(F)(F)F)cc2C#N)c(Cl)cc1CC(=O)O [44-1, {5-Chloro-4-(4-cyano-6-trifluoromethyl-pyridin-3-yl)-2-[(2-methoxy-phenyl)-methyl-carbamoyl]-phenyl}-acetic acid]
35 | ≤ 100 | Cc1c(Cl)cccc1N(C)C(=O)c1ccc(Cl)c(-n2c(C)cc(C(F)(F)F)nc2=O)c1 [30-12]
36 | ≤ 100 | COc1ccccc1N(C)C(=O)c1cc(-c2cnc(C(F)(F)F)cc2C#N)c(Cl)cc1OCCN1CCC[C@H]1C(=O)O [49-3]
37 | ≤ 100 | COc1cc(Cl)c(-c2cnc(C(F)(F)F)cc2C#N)cc1C(=O)N(C)c1ccccc1-c1cnco1 [39-12]
38 | ≤ 100 | COc1cc(Cl)c(-c2cnc(C(F)(F)F)cc2C#N)cc1C(=O)N(C)Cc1ccccc1 [39-15]
39 | ≤ 100 | COc1cccc(N(C)C(=O)c2cc(-c3cnc(C(F)(F)F)cc3C#N)c(Cl)cc2OC)n1 [39-23]
40 | ≤ 100 | CCOC(=O)CCCOc1cc(Cl)c(-c2cnc(C(F)(F)F)cc2C#N)cc1C(=O)N(C)c1ccccc1OC [43-1, 4-{5-Chloro-4-(4-cyano-6-trifluoromethyl-pyridin-3-yl)-2-[(2-methoxy-phenyl)-methyl-carbamoyl]-phenoxy}-butyric acid ethyl ester]
41 | ≤ 100 | COc1cccc(CN(C)C(=O)c2cc(-c3cnc(C(F)(F)F)cc3C#N)c(Cl)cc2OC)c1 [39-18]
42 | ≤ 100 | CN(C(=O)c1ccc(Cl)c(-c2nc3c(F)cccc3cc2C#N)c1)c1ccccc1OCCCC(=O)O [33-2]
43 | ≤ 100 | CNCCOc1cc(Cl)c(-c2cnc(C(F)(F)F)cc2C#N)cc1C(=O)N(C)c1ccccc1OC [42-17]
44 | ≤ 100 | COc1ccccc1N(C)C(=O)c1cc(-c2cnc(C(F)(F)F)cc2C#N)c(Cl)cc1OCCN1CCCC1=O [42-1, 4-Chloro-5-(4-cyano-6-trifluoromethyl-pyridin-3-yl)-N-(2-methoxy-phenyl)-N-methyl-2-[2-(2-oxo-pyrrolidin-1-yl)-ethoxy]-benzamide]
45 | ≤ 100 | COc1cc(Cl)c(-c2cnc(C(F)(F)F)cc2C#N)cc1C(=O)N(C)c1c(C)cccc1C [39-1, 4-Chloro-5-(4-cyano-6-trifluoromethyl-pyridin-3-yl)-N-(2,6-dimethyl-phenyl)-2-methoxy-N-methyl-benzamide]
46 | ≤ 100 | Cc1cccc(N(C)C(=O)c2ccc(Cl)c(-n3c(C)cc(C(F)(F)F)nc3=O)c2)c1C [30-14]
